# Assay results taken from patent publication US7560480B2, “Alkyl-containing 5-acylindolinones, the preparation thereof and their use as medicaments” (Boehringer Ingelheim International GmbH, priority 2004, dated 2009).
# What was measured:
# db/db mice = assay: Oral glucose tolerance test; type: in vivo; details: fasted db/db mice, 2 g/kg glucose orally 30 minutes after the substance
# Experimental: Oral Glucose Tolerance Test
# Fasted db/db mice 7 to 9 weeks old (Janvier, France) are weighed and blood is taken from the tip of the tail. This blood is used for the first measurement of glucose on the basis of which the animals are randomised and divided into groups. The test substance to be tested may be given either orally or i.p. as a suspension in 0.5% Natrosol. 30 minutes after the administration of the substance the animals are given orally 2 g/kg glucose in a volume of 0.1 ml/100 g body weight dissolved in NaCl solution. Subsequently, the glucose values are determined from the tail blood using a glucometer (Ultra OneTouch, Lifescan) at specific time intervals [30, 60, 120 and 180 minutes after oral administration of the glucose].
# mice = assay: Tolerability after oral administration (animals' behaviour); type: in vivo; details: oral administration of 10 mg/kg
compound,measurement,setting,value
CC(=O)c1ccc2c(c1)/C(=C(/NCCC(=O)N1CCN(C)CC1)c1ccccc1)C(=O)N2 [Example 1.009],activity in the oral glucose tolerance test,db/db mice,significant activity
same,tolerability: changes in the animals' behaviour,mice,no changes were observed in the animals' behaviour
